From ChEMBL document CHEMBL1201862, “PubChem BioAssay data set” (2004)
Active and inactive are the calls of the source.

Experiments:
[1] = biological target: 1-acylglycerol-3-phosphate O-acyltransferase ABHD5/Perilipin-5 (Homo sapiens, UniProt Q00G26+Q8WTS1); assay: Luminescence-based biochemical high throughput dose response assay for inhibitors of the interaction of the lipase co-activator protein, abhydrolase domain containing 5 (ABHD5) with perilipin-5 (MLDP; PLIN5) (2K validation set). [Related pubchem assays (depositor defined):AID493035, AID493241]
1-acylglycerol-3-phosphate O-acyltransferase ABHD5/Perilipin-5, sequence (Q00G26 whole entry, the tested form may be a part): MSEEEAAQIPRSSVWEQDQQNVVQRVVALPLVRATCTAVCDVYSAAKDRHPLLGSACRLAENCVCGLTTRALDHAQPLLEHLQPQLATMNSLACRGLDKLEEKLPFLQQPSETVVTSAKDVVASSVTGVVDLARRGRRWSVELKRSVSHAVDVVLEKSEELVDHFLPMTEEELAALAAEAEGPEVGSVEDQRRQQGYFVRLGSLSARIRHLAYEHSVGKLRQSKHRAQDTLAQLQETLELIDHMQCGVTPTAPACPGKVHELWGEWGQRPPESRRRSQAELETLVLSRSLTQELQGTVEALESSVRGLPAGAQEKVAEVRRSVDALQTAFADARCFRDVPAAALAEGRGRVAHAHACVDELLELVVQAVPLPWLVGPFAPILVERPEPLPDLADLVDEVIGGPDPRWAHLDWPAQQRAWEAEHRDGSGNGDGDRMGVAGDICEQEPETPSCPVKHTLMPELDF
1-acylglycerol-3-phosphate O-acyltransferase ABHD5/Perilipin-5, sequence (Q8WTS1 whole entry, the tested form may be a part): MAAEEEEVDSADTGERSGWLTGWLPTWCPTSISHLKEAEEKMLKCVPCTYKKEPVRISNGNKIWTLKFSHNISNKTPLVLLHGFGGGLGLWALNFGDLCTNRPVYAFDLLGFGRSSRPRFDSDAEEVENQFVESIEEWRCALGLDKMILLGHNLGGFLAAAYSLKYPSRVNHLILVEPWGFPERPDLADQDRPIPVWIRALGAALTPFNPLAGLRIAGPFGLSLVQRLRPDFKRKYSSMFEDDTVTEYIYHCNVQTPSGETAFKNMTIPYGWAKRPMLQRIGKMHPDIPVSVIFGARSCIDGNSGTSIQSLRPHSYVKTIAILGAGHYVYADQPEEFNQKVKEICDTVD

[2] = biological target: Perilipin-1/ABHD5 (Homo sapiens, UniProt O60240+Q8WTS1); assay: Luminescence-based biochemical high throughput dose response assay for inhibitors of the interaction of the lipase co-activator protein, abhydrolase domain containing 5 (ABHD5) with perilipin-1 (PLIN1) (2K validation set). [Related pubchem assays (depositor defined):AID493027, AID493057]
Perilipin-1/ABHD5, sequence (Q8WTS1 whole entry, the tested form may be a part): as above
Perilipin-1/ABHD5, sequence (O60240 whole entry, the tested form may be a part): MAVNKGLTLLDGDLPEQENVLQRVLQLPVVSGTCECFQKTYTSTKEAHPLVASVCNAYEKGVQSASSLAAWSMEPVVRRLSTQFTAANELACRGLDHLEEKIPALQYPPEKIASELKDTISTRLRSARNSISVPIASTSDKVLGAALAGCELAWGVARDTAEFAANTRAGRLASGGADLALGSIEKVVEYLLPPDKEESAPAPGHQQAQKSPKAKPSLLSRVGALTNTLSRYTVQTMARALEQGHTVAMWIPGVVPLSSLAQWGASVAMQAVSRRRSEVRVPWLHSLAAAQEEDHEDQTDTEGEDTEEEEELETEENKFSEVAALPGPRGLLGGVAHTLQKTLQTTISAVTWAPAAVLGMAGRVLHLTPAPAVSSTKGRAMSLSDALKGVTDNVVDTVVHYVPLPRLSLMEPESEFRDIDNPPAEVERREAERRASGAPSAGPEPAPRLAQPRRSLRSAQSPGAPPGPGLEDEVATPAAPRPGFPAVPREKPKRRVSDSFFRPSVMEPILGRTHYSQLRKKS

[3] = biological target: T1, Protein phosphatase methylesterase 1 (Homo sapiens, UniProt Q9Y570); assay: PME-1 inhibitor potency by in-gel ABPP, dose response, selectivity assay for PME-1 inhibitor project, cell lysate, mouse brain cytosol, FP-rhodamine, panel member PME-1 Assay Panel member description: Inhibition of endogenously expressed PME-1 (AID 2366)
T1 sequence (Q9Y570 whole entry): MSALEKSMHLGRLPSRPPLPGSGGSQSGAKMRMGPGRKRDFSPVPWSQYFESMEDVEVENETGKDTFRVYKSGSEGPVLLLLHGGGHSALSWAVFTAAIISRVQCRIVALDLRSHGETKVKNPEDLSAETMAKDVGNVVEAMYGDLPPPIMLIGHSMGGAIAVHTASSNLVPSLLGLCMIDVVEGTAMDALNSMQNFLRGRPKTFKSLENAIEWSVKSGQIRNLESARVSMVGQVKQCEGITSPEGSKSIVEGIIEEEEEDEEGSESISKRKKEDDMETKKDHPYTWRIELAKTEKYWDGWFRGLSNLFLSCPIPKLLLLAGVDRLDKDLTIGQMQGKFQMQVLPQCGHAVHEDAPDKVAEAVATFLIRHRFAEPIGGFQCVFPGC

[4] = biological target: T1, Protein phosphatase methylesterase 1; assay: Late stage results from the probe development effort to identify inhibitors of the protein methylesterase PME-1: Gel-based Activity-Based Protein Profiling (ABPP) IC50: Purified enzyme.; format: functional
[5] = inhibition of K1F phage lysis, E. coli UTI89, bacterial capsule biogenesis inhibitors, alamar blue (AID 488966); format: functional
[6] = biological target: T2, Streptokinase A (Streptococcus pyogenes serotype M1, UniProt P10520); assay: S. pyogenes streptokinase expression inhibitors, potency, dose response, plasminogen activation absorbance, OD405 (AID 1914); format: functional, Streptococcus pyogenes M1 GAS;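 also: secreted streptokinase activity via plasminogen activation per viability signal from cell pellet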
T2 sequence (P10520 whole entry): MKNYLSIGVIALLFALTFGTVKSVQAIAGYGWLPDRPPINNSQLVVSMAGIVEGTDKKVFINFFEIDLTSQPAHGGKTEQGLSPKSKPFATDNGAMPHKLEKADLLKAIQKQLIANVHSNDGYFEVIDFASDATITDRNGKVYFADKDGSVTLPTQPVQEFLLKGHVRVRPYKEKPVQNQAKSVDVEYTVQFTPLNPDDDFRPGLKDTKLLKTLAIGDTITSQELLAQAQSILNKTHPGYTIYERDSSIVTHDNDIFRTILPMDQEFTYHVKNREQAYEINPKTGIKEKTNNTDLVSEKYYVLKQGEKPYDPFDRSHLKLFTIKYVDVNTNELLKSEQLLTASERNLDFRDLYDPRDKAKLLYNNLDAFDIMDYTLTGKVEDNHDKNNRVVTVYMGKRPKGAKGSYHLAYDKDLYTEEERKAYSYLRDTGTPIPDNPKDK

[7] = LGR2 antagonists, dose response, cell-based, HEK293, CRE-luciferase reporter, cherry pick, set 2 (AID 743343); format: functional;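 also: transfected cells were stimulated with diluted bursicon conditioned medium after compound addition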
[8] = HEK293 cell cytotoxicity, dose response, cytotoxicity control, plate reader, cherry-picked samples (AID 743446); format: functional, cell-based
[9] = test system: Streptococcus sp. 'group A'; assay: growth inhibition of control SK(-) GAS strain, dose response, counter-screen for streptokinase expression inhibitor project, luminescence, kanamycin, BacTiterGlo, confirmation (AID 1900); format: functional, organism-based
[10] = biological target: Trypsin (Sus scrofa, UniProt P00761); assay: porcine trypsin inhibitors, dose response, selectivity assay for Rce1 protease inhibitor project, biochemical, quenched peptide fluorescence, cherry-pick (AID 488789)
Trypsin, sequence (P00761 whole entry): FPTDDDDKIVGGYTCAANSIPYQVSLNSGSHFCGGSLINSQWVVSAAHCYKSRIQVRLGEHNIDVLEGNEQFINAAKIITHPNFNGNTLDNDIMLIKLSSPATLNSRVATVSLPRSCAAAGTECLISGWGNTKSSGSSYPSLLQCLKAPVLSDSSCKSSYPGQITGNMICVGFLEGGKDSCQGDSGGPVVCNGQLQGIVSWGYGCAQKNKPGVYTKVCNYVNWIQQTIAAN

[11] = MC4R antagonists, dose response, counter-screen for LGR2 antagonist project, cell-based, plate reader, cherry pick (AID 743444); format: functional;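 also: transfected HEK 293 cells stimulated with alpha-MSH peptide; potency of inhibitors of the alpha-MSH evoked signal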
[12] = HepG2 cell cytotoxicity, dose response, cytotoxicity control, plate reader, cherry-pick, antagonist series (AID 743416); format: functional, cell-based
[13] = test system: Streptococcus; assay: Group A Streptococcus viability loss, dose response, counter-screen for streptokinase expression inhibitor project, luminescence, BacTiterGlo (AID 1915); format: functional, organism-based;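 also: potency for reduction of bacterial viability or growth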
[14] = A549 cell cytotoxicity, dose response, cytotoxicity control, plate reader, cherry-pick, antagonist series (AID 743412); format: functional, cell-based
[15] = biological target: T3, CAAX prenyl protease 2 (Saccharomyces cerevisiae S288c, UniProt Q03530); format: biochemical
T3 sequence (Q03530 whole entry): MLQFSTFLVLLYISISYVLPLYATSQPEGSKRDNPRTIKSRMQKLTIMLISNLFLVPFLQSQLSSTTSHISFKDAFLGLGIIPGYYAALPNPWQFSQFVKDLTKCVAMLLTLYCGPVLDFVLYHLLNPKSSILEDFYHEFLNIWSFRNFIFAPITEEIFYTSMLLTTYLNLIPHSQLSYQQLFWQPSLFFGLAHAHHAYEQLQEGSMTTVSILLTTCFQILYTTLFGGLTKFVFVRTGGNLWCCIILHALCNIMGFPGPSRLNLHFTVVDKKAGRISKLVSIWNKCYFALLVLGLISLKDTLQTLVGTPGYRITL

[16] = biological target: Voltage-dependent T-type calcium channel subunit alpha-1H (Homo sapiens, UniProt O95180); format: functional;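 also: channel activity triggered by adding a high calcium stimulation buffer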
Voltage-dependent T-type calcium channel subunit alpha-1H, sequence (O95180 whole entry): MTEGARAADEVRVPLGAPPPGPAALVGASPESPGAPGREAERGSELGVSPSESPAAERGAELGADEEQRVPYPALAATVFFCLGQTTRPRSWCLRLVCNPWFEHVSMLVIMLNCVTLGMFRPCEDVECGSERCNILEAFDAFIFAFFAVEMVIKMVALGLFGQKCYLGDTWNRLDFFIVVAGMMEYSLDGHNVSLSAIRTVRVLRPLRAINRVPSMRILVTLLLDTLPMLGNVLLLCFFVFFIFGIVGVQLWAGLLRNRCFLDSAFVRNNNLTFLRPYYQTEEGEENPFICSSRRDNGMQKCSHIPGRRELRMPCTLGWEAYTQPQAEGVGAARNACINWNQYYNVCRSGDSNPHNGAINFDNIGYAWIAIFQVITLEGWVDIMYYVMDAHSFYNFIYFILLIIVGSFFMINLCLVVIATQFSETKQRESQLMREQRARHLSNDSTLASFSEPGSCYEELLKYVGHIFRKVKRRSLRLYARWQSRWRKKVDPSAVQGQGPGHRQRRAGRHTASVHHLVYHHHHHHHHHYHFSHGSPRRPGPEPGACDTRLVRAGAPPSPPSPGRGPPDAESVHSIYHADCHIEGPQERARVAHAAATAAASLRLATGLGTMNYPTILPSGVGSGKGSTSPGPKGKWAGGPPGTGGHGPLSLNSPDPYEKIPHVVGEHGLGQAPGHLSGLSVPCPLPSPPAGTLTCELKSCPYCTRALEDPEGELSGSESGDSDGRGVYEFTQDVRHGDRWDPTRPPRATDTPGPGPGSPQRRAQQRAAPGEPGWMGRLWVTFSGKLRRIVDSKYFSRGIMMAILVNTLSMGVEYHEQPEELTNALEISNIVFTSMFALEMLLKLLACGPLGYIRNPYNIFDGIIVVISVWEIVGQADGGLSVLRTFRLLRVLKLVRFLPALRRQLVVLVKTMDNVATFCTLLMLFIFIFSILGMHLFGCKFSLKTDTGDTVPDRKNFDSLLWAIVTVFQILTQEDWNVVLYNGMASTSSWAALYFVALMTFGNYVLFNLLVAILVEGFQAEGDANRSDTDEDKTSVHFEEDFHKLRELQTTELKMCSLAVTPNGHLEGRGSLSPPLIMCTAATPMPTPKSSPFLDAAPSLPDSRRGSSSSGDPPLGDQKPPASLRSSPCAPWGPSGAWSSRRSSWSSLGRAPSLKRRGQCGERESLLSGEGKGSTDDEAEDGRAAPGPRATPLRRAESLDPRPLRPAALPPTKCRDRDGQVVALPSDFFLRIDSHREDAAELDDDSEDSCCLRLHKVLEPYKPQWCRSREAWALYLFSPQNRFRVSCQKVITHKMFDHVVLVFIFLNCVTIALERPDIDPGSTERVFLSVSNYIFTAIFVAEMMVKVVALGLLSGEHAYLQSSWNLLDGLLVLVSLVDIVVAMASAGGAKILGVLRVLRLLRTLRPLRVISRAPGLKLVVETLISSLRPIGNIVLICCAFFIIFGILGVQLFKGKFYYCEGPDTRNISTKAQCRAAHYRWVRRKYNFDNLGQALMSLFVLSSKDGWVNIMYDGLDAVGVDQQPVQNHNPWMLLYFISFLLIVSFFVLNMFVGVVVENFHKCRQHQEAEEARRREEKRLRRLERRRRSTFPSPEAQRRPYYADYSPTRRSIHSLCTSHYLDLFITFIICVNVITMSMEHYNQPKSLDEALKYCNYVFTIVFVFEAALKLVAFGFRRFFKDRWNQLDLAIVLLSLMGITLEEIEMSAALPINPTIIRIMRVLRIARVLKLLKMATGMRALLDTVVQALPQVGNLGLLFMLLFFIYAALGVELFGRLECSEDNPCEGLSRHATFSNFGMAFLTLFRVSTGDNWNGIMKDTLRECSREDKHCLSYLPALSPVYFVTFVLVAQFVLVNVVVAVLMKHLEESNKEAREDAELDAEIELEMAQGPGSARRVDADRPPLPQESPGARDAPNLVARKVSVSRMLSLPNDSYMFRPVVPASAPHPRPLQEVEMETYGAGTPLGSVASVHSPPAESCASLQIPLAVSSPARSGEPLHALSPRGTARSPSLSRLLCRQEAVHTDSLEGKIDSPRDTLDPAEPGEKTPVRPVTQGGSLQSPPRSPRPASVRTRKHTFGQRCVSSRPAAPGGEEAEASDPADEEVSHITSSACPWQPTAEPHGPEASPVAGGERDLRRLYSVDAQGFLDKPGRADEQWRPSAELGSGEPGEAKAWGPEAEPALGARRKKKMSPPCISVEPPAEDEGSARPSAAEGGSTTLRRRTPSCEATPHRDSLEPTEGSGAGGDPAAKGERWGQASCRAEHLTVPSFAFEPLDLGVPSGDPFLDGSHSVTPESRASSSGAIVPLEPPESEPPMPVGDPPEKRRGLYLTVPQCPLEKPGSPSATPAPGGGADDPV

[17] = biological target: G-protein coupled receptor 55 (Homo sapiens, UniProt Q9Y2T6); assay: GPR55 antagonists blocking LPI-driven arrestin recruitment, primary screen, imaging, U2OS, beta-arrestin-GFP, LPI agonist (AID 2013); format: functional;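 also: antagonist potency measured as reduced agonist-driven arrestin aggregation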
G-protein coupled receptor 55, sequence (Q9Y2T6 whole entry): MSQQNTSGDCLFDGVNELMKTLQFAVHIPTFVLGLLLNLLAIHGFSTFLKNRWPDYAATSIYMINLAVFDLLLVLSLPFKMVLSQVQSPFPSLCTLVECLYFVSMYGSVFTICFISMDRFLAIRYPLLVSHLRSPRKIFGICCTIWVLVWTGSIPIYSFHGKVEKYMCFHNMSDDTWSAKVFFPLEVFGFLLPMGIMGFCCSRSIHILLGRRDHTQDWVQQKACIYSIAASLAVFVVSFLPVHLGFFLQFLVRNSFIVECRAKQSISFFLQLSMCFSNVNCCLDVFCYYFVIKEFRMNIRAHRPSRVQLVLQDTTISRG

[18] = biological target: T4, Short transient receptor potential channel 4 (Mus musculus, UniProt Q9QUQ5); assay: TRPC4 positive allosteric modulators, dose response, cell-based, HEK293 TRPC4/mu-opioid, Fluo-4 calcium, EC20 DAMGO (AID 434941); format: functional
T4 sequence (Q9QUQ5 whole entry): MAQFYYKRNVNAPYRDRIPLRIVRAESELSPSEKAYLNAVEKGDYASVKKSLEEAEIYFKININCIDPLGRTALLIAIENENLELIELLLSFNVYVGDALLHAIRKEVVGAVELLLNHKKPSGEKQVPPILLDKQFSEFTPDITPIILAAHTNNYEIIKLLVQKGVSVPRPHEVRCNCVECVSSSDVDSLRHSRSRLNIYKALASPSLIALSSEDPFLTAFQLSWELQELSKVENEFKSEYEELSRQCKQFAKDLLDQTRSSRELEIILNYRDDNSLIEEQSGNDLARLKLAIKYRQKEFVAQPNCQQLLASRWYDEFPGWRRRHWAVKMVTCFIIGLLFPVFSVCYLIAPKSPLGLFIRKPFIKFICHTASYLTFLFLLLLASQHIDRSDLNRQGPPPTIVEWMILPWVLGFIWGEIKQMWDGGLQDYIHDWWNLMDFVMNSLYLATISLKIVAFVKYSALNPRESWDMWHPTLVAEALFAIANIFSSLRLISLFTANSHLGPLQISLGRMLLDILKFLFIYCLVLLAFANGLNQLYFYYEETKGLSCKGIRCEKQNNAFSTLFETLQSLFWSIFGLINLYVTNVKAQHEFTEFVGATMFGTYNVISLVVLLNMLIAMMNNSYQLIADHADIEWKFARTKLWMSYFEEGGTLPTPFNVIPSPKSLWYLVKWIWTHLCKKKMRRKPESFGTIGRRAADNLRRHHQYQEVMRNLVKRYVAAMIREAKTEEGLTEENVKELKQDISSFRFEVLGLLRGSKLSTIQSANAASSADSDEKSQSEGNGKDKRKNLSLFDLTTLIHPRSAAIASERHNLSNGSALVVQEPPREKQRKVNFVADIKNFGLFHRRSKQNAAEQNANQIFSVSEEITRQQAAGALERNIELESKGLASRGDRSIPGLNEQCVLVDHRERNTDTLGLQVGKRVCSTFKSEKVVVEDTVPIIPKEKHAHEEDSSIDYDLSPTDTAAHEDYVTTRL

[19] = biological target: T5, Coagulation factor XII (Homo sapiens, UniProt P00748); assay: FXIIa inhibitor potency, concentration-response, biochemical (AID 716); format: functional
T5 sequence (P00748 whole entry): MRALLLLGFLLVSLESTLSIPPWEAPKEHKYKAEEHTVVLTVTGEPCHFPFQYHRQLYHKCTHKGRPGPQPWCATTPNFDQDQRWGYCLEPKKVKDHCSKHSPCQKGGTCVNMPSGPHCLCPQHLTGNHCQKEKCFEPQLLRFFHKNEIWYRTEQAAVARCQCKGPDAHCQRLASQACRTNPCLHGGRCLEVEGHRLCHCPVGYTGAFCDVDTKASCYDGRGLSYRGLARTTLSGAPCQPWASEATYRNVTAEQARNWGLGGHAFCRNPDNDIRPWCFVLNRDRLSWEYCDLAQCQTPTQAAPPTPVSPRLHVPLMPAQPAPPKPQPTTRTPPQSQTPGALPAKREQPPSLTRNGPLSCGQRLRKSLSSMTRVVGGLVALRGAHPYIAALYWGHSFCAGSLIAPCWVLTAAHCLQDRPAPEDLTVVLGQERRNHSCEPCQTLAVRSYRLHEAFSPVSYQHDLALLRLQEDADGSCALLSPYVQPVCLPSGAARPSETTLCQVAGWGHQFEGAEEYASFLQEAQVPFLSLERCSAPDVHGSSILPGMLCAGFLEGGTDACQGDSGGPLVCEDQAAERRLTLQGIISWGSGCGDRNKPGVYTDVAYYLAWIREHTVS

COc1ccc(O)c(C(=O)/C=C/c2cc3ccccc3o2)c1
IC50 [1]: 4.85 µM (active) | IC50 [2]: 4.8 µM (active)

CS(=O)(=O)/C(=C/c1cccn1S(=O)(=O)c1ccccc1)CN
IC50 [3]: > 20 µM (inactive) | IC50 [4]: > 20 µM (not active)

Cc1cc(C(=O)NN=Cc2ccc(OC(=O)c3ccco3)cc2)c(C)o1
IC50 [5]: > 150 µM (active)

CCC(C)Sc1cc(-c2nc3ccccn3c2NC2CCCCC2)ccc1OC (centres undefined)
EC50 [6]: 15 µM (active) | AC50 [7]: 2.82 µM (active) | AC50 [8]: 21.1 µM (active) | EC50 [9]: 2.28 µM (active) | AC50 [10]: 2.69 µM (active) | AC50 [11]: 3.11 µM (active) | AC50 [12]: 18.2 µM (active) | EC50 [13]: 7.68 µM (active) | AC50 [14]: 15.7 µM (active) | AC50 [15]: 7.58 µM (active)

O=C(CSc1nc2ccccc2o1)Nc1ccccc1N1CCCCCC1
EC50 [16]: 8.41 µM (active) | IC50 [17]: 2.06 µM (active)

Cc1ccc(Cn2c(=N)c(C(=O)NC3CCCC3)cc3c(=O)n4ccccc4nc32)cc1
EC50 [18]: 2.11 µM (active)

COc1ccc(C(=O)c2c(C)oc3ccc(O)c(CN4CCOCC4)c23)cc1
IC50 [19]: > 50 µM (inactive)
